Our source for the TGI values is PubChem BioAssay (NCI).

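Step 1: Grow cells in 96-well plates. Step 2: Expose to compound for 48 hours at 5 concentrations. Step 3: Interpolate endpoints linearly; if unreached, use highest concentration. TGI: total growth inhibition.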 Bounds are passed on as bounds.

Test systems include DLD-1 colon; DMS 114 small cell lung; HOP-18 NSCLC; M19-MEL melanoma; DMS 273 small cell lung; RXF-631 renal; SNB-78 CNS; XF 498 CNS; P388 leukemia; P388/ADR leukemia; SN12K1 renal.
Holding throughout (experiment): NCI tumour cell line growth inhibition, 48 h

With `C/C=C(/C)C(=O)O[C@H]1[C@H](O)CC(c2ccc3c(c2O)C(O)=C2C(=O)C4(OC)C(O)=C(C(N)=O)C(=O)[C@H](CC(=O)c5ccccc5O)C4CC2[C@@]3(C)OC)O[C@@H]1C` (some centres not stated), the TGI in the experiment with DLD-1 colon is 3.85 µM; in the experiment on DMS 114 small cell lung, 0.0292 µM; with HOP-18 NSCLC it was 3.07 µM; in the experiment on M19-MEL melanoma, 0.768 µM.
For the molecule `CN1C/C(=C\C=C\c2ccccc2)C(=O)/C(=C/C=C/c2ccccc2)C1`, the TGI with DLD-1 colon, in the experiment on DMS 114 small cell lung, with DMS 273 small cell lung, in the experiment with M19-MEL melanoma, in the experiment with RXF-631 renal and with SNB-78 CNS was more than 100 µM each time. In the experiment on XF 498 CNS, this molecule came in with a TGI of more than 100 µM.
With `CCCCNC(=O)/N=C/c1c(O)c2ccccc2oc1=O`, the TGI was more than 100 µM in the experiment with DMS 114 small cell lung; more than 100 µM in the experiment with DMS 273 small cell lung; more than 100 µM in the experiment with M19-MEL melanoma; more than 100 µM with SNB-78 CNS; 65.1 µM in the experiment with XF 498 CNS.
For the molecule `O=C1NCCS(=O)(=O)N2CCC[C@@H]12`, the TGI with DLD-1 colon, with DMS 114 small cell lung, in the experiment with HOP-18 NSCLC, in the experiment with M19-MEL melanoma, in the experiment with RXF-631 renal and in the experiment on SNB-78 CNS was more than 100 µM in each case.
As to `O=C1c2ccccc2C(=O)c2[nH]c(Cc3ccc(F)cc3)nc21`, the TGI in the experiment with DLD-1 colon was 8.21 µM; in the experiment with DMS 273 small cell lung, 35.5 µM; with M19-MEL melanoma, 34.2 µM; with RXF-631 renal, 44.8 µM; with XF 498 CNS it was 31.8 µM.
`O=C1CSc2cc([N+](=O)[O-])ccc2N1`: the TGI with DLD-1 colon, with DMS 114 small cell lung, with DMS 273 small cell lung, in the experiment on HOP-18 NSCLC, with M19-MEL melanoma and with RXF-631 renal was more than 100 µM each time. In addition, the TGI in the experiment with SNB-78 CNS and in the experiment with XF 498 CNS was more than 100 µM each time.
As for `NC(CSSCC(N)Cc1ccccc1)Cc1ccccc1` (configuration not stated), the TGI with DLD-1 colon was more than 100 µM; with DMS 114 small cell lung, more than 100 µM; in the experiment with M19-MEL melanoma it was more than 100 µM; in the experiment on SNB-78 CNS, more than 100 µM; with XF 498 CNS, 57.2 µM.
Consider `COc1ccc(C[C@H](N)C(=O)N2C[C@@H](CO)C[C@@H](n3ccc(=O)[nH]c3=O)C2)cc1`, for which the TGI in the experiment on DLD-1 colon, in the experiment with DMS 114 small cell lung, with DMS 273 small cell lung, in the experiment with HOP-18 NSCLC and with M19-MEL melanoma was more than 100 µM throughout.
For `O=c1oc2ccccc2c(O)c1C(C/C(CCN1CCCC1)=N\Nc1ccccc1)c1ccccc1` (configuration not stated), the TGI in the experiment on DLD-1 colon, in the experiment on HOP-18 NSCLC, with M19-MEL melanoma, in the experiment with SNB-78 CNS and in the experiment with XF 498 CNS was more than 100 µM each time.
On to `COc1ccc(N2C(=O)C3c4[nH]c5ccccc5c4C4CCCCC4C3C2=O)cc1` (configuration not stated), for which the TGI with DLD-1 colon was more than 100 µM; in the experiment on DMS 114 small cell lung, more than 100 µM; in the experiment with DMS 273 small cell lung, 23.9 µM; in the experiment on HOP-18 NSCLC, 67.7 µM; in the experiment with M19-MEL melanoma, more than 100 µM; in the experiment on SNB-78 CNS, 12.1 µM.
Consider `CN(C)/N=N/c1nc[nH]c1C(N)=O`, for which the TGI was 96.8 µM in the experiment with DMS 114 small cell lung; 88.3 µM in the experiment on DMS 273 small cell lung; 39.2 µM in the experiment on HOP-18 NSCLC; more than 94.7 µM in the experiment on M19-MEL melanoma; more than 98.3 µM in the experiment on P388 leukemia; more than 96.5 µM in the experiment on P388/ADR leukemia. For the same molecule, the TGI in the experiment on SN12K1 renal stood at 92.6 µM; in the experiment with XF 498 CNS, 84.5 µM.
Take `COC1OC2=CCC3C(=O)NC(=O)C3C2[C@H](OCc2ccccc2)C1OCc1ccccc1` (some centres not stated): the TGI in the experiment with DLD-1 colon is 3.71 µM; in the experiment on HOP-18 NSCLC, 6.37 µM; in the experiment with SNB-78 CNS, 4.12 µM.
For `CC1(C)N=C(c2ccccn2)C(c2ccccn2)=NC1(C)C`, the TGI in the experiment on DLD-1 colon, in the experiment with DMS 114 small cell lung, in the experiment on DMS 273 small cell lung, with M19-MEL melanoma, in the experiment on RXF-631 renal and in the experiment with SNB-78 CNS was more than 100 µM throughout. Moreover, the TGI in the experiment with XF 498 CNS is more than 100 µM.
Take `COc1ccc2c(c1)OC[C@@H]1c3cc(O)c(OCc4ccccc4)cc3O[C@H]21`: the TGI in the experiment with DLD-1 colon was more than 100 µM; in the experiment with DMS 114 small cell lung it was 82.6 µM; in the experiment with DMS 273 small cell lung, more than 100 µM; in the experiment with HOP-18 NSCLC it was more than 100 µM; in the experiment on M19-MEL melanoma, 95.5 µM; in the experiment with RXF-631 renal, more than 100 µM. The TGI worked out at 92.3 µM in the experiment with SNB-78 CNS and 68.4 µM in the experiment with XF 498 CNS.
